Counter-ions that a name gives are not always drawn.
What was measured:
[1] = Solid-state stability (HPLC purity and crystal form by XRPD after storage); format: physicochemical; conditions: for Purity / Initial purity / HPLC purity after storage at 336 h / HPLC purity after storage at 672 h / HPLC purity after storage at 168 h: HPLC; for Initial purity: starting sample before storage; for HPLC purity after storage at 336 h / HPLC purity after storage at 672 h / HPLC purity after storage at 168 h: solid state, open
Method: About 10 mg of each solid form of the compound was weighed and added to the HPLC vial, respectively, the bottleneck was sealed with a sealing film, and 10 small holes were made on the film. The vial was placed in 25° C./60% RH and 40° C./75% RH environment for 4 weeks, samples were taken in the 1st week, the 2nd week and the 4th week respectively, the purity (by HPLC analysis) and crystal form (by X ray powder diffraction analysis) of the sample were investigated.

[2] = Hygroscopicity by dynamic moisture adsorption (DVS); format: physicochemical; conditions: 25° C./80% RH, 0% RH-95% RH adsorption curve
Method: Dynamic moisture adsorption (DVS) analysis: the instrument is a DVS Intrinsic produced by SMS company (Surface Measurement Systems); temperature, 25° C.; carrier gas, flow rate: nitrogen, 200 mL/min; mass change per unit time: 0.002%/min; relative humidity range: 0% RH-95% RH.
Dynamic moisture absorption (DVS) was used to test their hygroscopicity.

[3] = 25 °C/60% RH/open, 1 week, 10080 min
[4] = 25 °C/60% RH/open, 2 weeks, 20160 min
[5] = 25 °C/60% RH/open, 4 weeks, 40320 min
[6] = 40 °C/75% RH/open, 1 week, 10080 min
[7] = 40 °C/75% RH/open, 2 weeks, 20160 min
[8] = 40 °C/75% RH/open, 4 weeks, 40320 min
[9] = 25° C./60% RH and 40° C./75% RH, 4 weeks, result in words

Structure (SMILES)	Purity [1, 3] [area %]	Purity [1, 4] [area %]	Purity [1, 5] [area %]	Purity [1, 6] [area %]	Purity [1, 7] [area %]	Purity [1, 8] [area %]	Initial purity [1] [area %]	HPLC purity change on storage [1, 9]	crystalline phase change on storage (XRPD) [1, 9]	HPLC purity after storage at 336 h ([1]; 40 °C/75% RH/open, 2 weeks) [%]	HPLC purity after storage at 672 h ([1]; 40 °C/75% RH/open, 4 weeks) [%]	moisture adsorption value (moisture uptake) [2] [%]	HPLC purity after storage at 168 h ([1]; 25 °C/60% RH/open, 1 week) [%]	HPLC purity after storage at 336 h ([1]; 25 °C/60% RH/open, 2 weeks) [%]	HPLC purity after storage at 672 h ([1]; 25 °C/60% RH/open, 4 weeks) [%]	HPLC purity after storage at 168 h ([1]; 40 °C/75% RH/open, 1 week) [%]
CNCc1ccc(NS(=O)(=O)c2ccsc2)c(-c2ccco2)c1 [benzene sulfonate crystal form J, N-(2-(furan-2-yl)-4-((methylamino)methyl)-phenyl)thiophene-3-sulfonamide]	98.87	98.85	98.82	98.87	98.82	98.79	98.87									
CNCc1ccc(NS(=O)(=O)c2ccsc2)c(-c2ccco2)c1 [Tartrate crystal form H, N-(2-(furan-2-yl)-4-((methylamino)methyl)phenyl)thiophene-3-sulfonamide]	98.71	98.62	98.6	98.7	98.6	98.53	98.71									
CNCc1ccc(NS(=O)(=O)c2ccsc2)c(-c2ccco2)c1 [Malonate crystal form K, N-(2-(furan-2-yl)-4-((methylamino)methyl)phenyl)thiophene-3-sulfonamide]	98.64	98.61	98.59	98.64	98.58	98.46	98.64									
CNCc1ccc(NS(=O)(=O)c2ccsc2)c(-c2ccco2)c1 [Pyroglutamate crystal form I, N-(2-(furan-2-yl)-4-((methylamino)methyl)phenyl)thiophene-3-sulfonamide]	98.61	98.58	98.57	98.61	98.54	98.32	98.61									
CNCc1ccc(NS(=O)(=O)c2ccsc2)c(-c2ccco2)c1 [Phosphate crystal form G, N-(2-(furan-2-yl)-4-((methylamino)methyl)phenyl)thiophene-3-sulfonamide]	98.11	98.09	98.04	98.11	98.06	98.01	98.11									

Further lines, results first:

Purity [1, 3] [area %]	Purity [1, 4] [area %]	Purity [1, 5] [area %]	Purity [1, 6] [area %]	Purity [1, 7] [area %]	Purity [1, 8] [area %]	Initial purity [1] [area %]	HPLC purity change on storage [1, 9]	crystalline phase change on storage (XRPD) [1, 9]	HPLC purity after storage at 336 h ([1]; 40 °C/75% RH/open, 2 weeks) [%]	HPLC purity after storage at 672 h ([1]; 40 °C/75% RH/open, 4 weeks) [%]	moisture adsorption value (moisture uptake) [2] [%]	HPLC purity after storage at 168 h ([1]; 25 °C/60% RH/open, 1 week) [%]	HPLC purity after storage at 336 h ([1]; 25 °C/60% RH/open, 2 weeks) [%]	HPLC purity after storage at 672 h ([1]; 25 °C/60% RH/open, 4 weeks) [%]	HPLC purity after storage at 168 h ([1]; 40 °C/75% RH/open, 1 week) [%]	Structure (SMILES)
98.18	98.14	98.1	98.19			98.11	did not decrease significantly	no detectable crystalline phase changes	98.2	98.1	1.6					CNCc1ccc(NS(=O)(=O)c2ccsc2)c(-c2ccco2)c1 [free crystal form A, N-(2-(furan-2-yl)-4-((methylamino)methyl)phenyl)thiophene-3-sulfonamide]
98.97	98.92	98.87	99.02	98.9	99	99.02					5.5					CNCc1ccc(NS(=O)(=O)c2ccsc2)c(-c2ccco2)c1 [hydrochloride crystal form C, N-(2-(furan-2-yl)-4-((methylamino)methyl)phenyl)thiophene-3-sulfonamide]
				98.5	98.52	98.55					0.2	98.5	98.5	98.6	98.4	CNCc1ccc(NS(=O)(=O)c2ccsc2)c(-c2ccco2)c1 [fumarate crystal form B, N-(2-(furan-2-yl)-4-((methylamino)methyl)phenyl)thiophene-3-sulfonamide]
98.92	98.86	98.94	98.92	98.72	98.98	98.82					0.6					CNCc1ccc(NS(=O)(=O)c2ccsc2)c(-c2ccco2)c1 [succinate crystal form E, N-(2-(furan-2-yl)-4-((methylamino)methyl)phenyl)thiophene-3-sulfonamide]
98.72	98.7	98.79	98.74	98.75	98.68	98.72					1.4					CNCc1ccc(NS(=O)(=O)c2ccsc2)c(-c2ccco2)c1 [malate crystal form F, N-(2-(furan-2-yl)-4-((methylamino)methyl)phenyl)thiophene-3-sulfonamide]
98.74	98.65	98.78	98.76	98.65	98.78	98.77					1.3					CNCc1ccc(NS(=O)(=O)c2ccsc2)c(-c2ccco2)c1 [sulfate crystal form D, N-(2-(furan-2-yl)-4-((methylamino)methyl)phenyl)thiophene-3-sulfonamide]
